According to the NIST ThermoML archive (doi:10.1016/j.tca.2011.10.030):

Experiment: xn = mol fraction of the nth substance listed
Conditions: 101 kPa, Liquid; for viscosity: Capillary tube (Ostwald / Ubbelohde) method; for mass density: Vibrating tube method

CCCCCCn1cc[n+](C)c1.F[B-](F)(F)F [1-hexyl-3-methylimidazolium tetrafluoroborate] + CCCO
Conditions | mass density, 293.15 K [kg/m3] | mass density, 303.15 K [kg/m3] | mass density, 313.15 K [kg/m3] | mass density, 323.15 K [kg/m3] | mass density, 333.15 K [kg/m3] | viscosity, 293.15 K [mPa·s] | viscosity, 303.15 K [mPa·s] | viscosity, 313.15 K [mPa·s] | viscosity, 323.15 K [mPa·s] | viscosity, 333.15 K [mPa·s]
x1 = 0.1004 | – | – | – | – | – | – | – | 1.999 | – | –
x1 = 0.1006 | 895.6 | 887.71 | 879.74 | 871.67 | 863.47 | 3.744 | 2.705 | – | 1.502 | 1.123
x1 = 0.199 | 955.99 | 948.28 | 940.53 | 932.73 | 924.86 | 6.294 | 4.518 | 3.364 | 2.585 | 1.99
x1 = 0.3002 | 1001.98 | 994.41 | 986.83 | 979.23 | 971.61 | 10.08 | 7.158 | 5.324 | 4.056 | 3.14
x1 = 0.4993 | 1065.02 | 1057.71 | 1050.43 | 1043.18 | 1035.95 | 23.7 | 16.37 | 11.84 | 8.808 | 6.76
x1 = 0.6309 | 1094.51 | 1087.38 | 1080.27 | 1073.19 | 1066.15 | 41.96 | 27.85 | 19.44 | 14.25 | 10.74
x1 = 0.7571 | 1116.98 | 1110.01 | 1103.05 | 1096.1 | 1089.2 | 73.7 | 46.65 | 31.26 | 21.97 | 16.09
x1 = 0.8894 | 1135.92 | 1129.14 | 1122.32 | 1115.51 | 1108.71 | 139.42 | 82.45 | 52.28 | 35.15 | 24.67
x1 = 1 | 1149.24 | 1142.48 | 1135.79 | 1129.08 | 1122.37 | 232.65 | 130.02 | 78.24 | 50.3 | 34.02
